# Results taken from ChEMBL document CHEMBL3352489, “6-Hydroxyquinolinium salts differing in the length of alkyl side-chain: synthesis and antimicrobial activity” (Bioorg Med Chem Lett, 2014).
# Experiments:
# Klebsiella pneumoniae [1] = assay: Bactericidal activity against Klebsiella pneumoniae J 14368/08 after 48 hrs by microdilution broth method; format: functional; conditions: J 14368/08, 48 h, read-out: MBC>99.9
# Lichtheimia corymbifera [2] = assay: microbe, parasite or virus in culture; format: functional; conditions: Lichtheimia corymbifera, 272, 24 h
# Description: Antifungal activity against Absidia corymbifera 272 after 24 hrs by modified standard CSLI M27-A2 method
# Aspergillus fumigatus [3] = assay: Fungicidal activity against Aspergillus fumigatus 231 after 48 hrs by modified standard CSLI M27-A2 method; format: functional; conditions: Aspergillus fumigatus, 231, 48 h
# Escherichia coli [4] = assay: Bactericidal activity against Escherichia coli CCM 4517 after 48 hrs by microdilution broth method; format: functional; conditions: CCM 4517, 48 h, read-out: MBC>99.9
# Candida albicans [5] = assay: microbe, parasite or virus in culture; format: functional; conditions: ATCC 44859, 48 h
# Description: Antifungal activity against Candida albicans ATCC 44859 after 48 hrs by modified standard CSLI M27-A2 method
# Klebsiella pneumoniae [6] = assay: microbe, parasite or virus in culture; format: functional; conditions: D 11750/08, 48 h
# Description: Antibacterial activity against Klebsiella pneumoniae D 11750/08 after 48 hrs by microdilution broth method
# Trichosporon asahii [7] = assay: microbe, parasite or virus in culture; format: functional; conditions: Trichosporon asahii, 1188, 24 h
# Description: Antifungal activity against Trichosporon asahii 1188 after 24 hrs by modified standard CSLI M27-A2 method
# Pseudomonas aeruginosa [8] = assay: Bactericidal activity against Pseudomonas aeruginosa CCM 1961 after 120 hrs by microdilution broth method; format: functional; conditions: CCM 1961, 120 h, read-out: MBC>99.9
# Pichia kudriavzevii [9] = assay: Antifungal activity against Candida krusei E28 after 48 hrs by modified standard CSLI M27-A2 method; format: functional; conditions: E28, 48 h
# [10] = tested on: Trichophyton mentagrophytes; assay: microbe, parasite or virus in culture; format: functional; conditions: Trichophyton mentagrophytes, 445, 120 h
# Description: Antifungal activity against Trichophyton mentagrophytes 445 after 120 hrs by modified standard CSLI M27-A2 method
# Staphylococcus aureus [11] = assay: Bactericidal activity against Staphylococcus aureus H 5996/08 after 48 hrs by microdilution broth method; format: functional; conditions: H 5996/08, 48 h, read-out: MBC>99.9
# Aspergillus fumigatus [12] = assay: microbe, parasite or virus in culture; format: functional; conditions: Aspergillus fumigatus, 231, 24 h
# Description: Antifungal activity against Aspergillus fumigatus 231 after 24 hrs by modified standard CSLI M27-A2 method
# [13] = tested on: Staphylococcus epidermidis; assay: Bactericidal activity against Staphylococcus epidermidis H 6966/08 after 48 hrs by microdilution broth method; format: functional; conditions: H 6966/08, 48 h, read-out: MBC>99.9
# Candida albicans [14] = assay: Fungicidal activity against Candida albicans ATCC 44859 after 48 hrs by modified standard CSLI M27-A2 method; format: functional; conditions: ATCC 44859, 48 h
# [15] = tested on: Staphylococcus epidermidis; assay: microbe, parasite or virus in culture; format: functional; conditions: H 6966/08, 24 h
# Description: Antibacterial activity against Staphylococcus epidermidis H 6966/08 after 24 hrs by microdilution broth method
# Staphylococcus aureus [16] = assay: microbe, parasite or virus in culture; format: functional; conditions: CCM 4516/08, 48 h
# Description: Antibacterial activity against Staphylococcus aureus CCM 4516/08 after 48 hrs by microdilution broth method
# Enterococcus sp. [17] = assay: microbe, parasite or virus in culture; format: functional; conditions: J 14365/08, 48 h
# Description: Antibacterial activity against Enterococcus sp. J 14365/08 after 48 hrs by microdilution broth method
# Nakaseomyces glabratus [18] = assay: Antifungal activity against Candida glabrata 20/I after 24 hrs by modified standard CSLI M27-A2 method; format: functional
# Klebsiella pneumoniae [19] = assay: Bactericidal activity against Klebsiella pneumoniae D 11750/08 after 24 hrs by microdilution broth method; format: functional; conditions: D 11750/08, 24 h, read-out: MBC>99.9
# Aspergillus fumigatus [20] = assay: microbe, parasite or virus in culture; format: functional; conditions: Aspergillus fumigatus, 231, 48 h
# Description: Antifungal activity against Aspergillus fumigatus 231 after 48 hrs by modified standard CSLI M27-A2 method
# Pseudomonas aeruginosa [21] = assay: microbe, parasite or virus in culture; format: functional; conditions: CCM 1961, 120 h
# Description: Antibacterial activity against Pseudomonas aeruginosa CCM 1961 after 120 hrs by microdilution broth method
# [22] = tested on: Trichophyton mentagrophytes; assay: Fungicidal activity against Trichophyton mentagrophytes 445 after 120 hrs by modified standard CSLI M27-A2 method; format: functional; conditions: Trichophyton mentagrophytes, 445, 120 h
# Pichia kudriavzevii [23] = assay: Fungicidal activity against Candida krusei E28 after 48 hrs by modified standard CSLI M27-A2 method; format: functional; conditions: E28, 48 h
# Klebsiella pneumoniae [24] = assay: microbe, parasite or virus in culture; format: functional; conditions: J 14368/08, 24 h
# Description: Antibacterial activity against Klebsiella pneumoniae J 14368/08 after 24 hrs by microdilution broth method
# Lichtheimia corymbifera [25] = assay: microbe, parasite or virus in culture; format: functional; conditions: Lichtheimia corymbifera, 272, 48 h
# Description: Antifungal activity against Absidia corymbifera 272 after 48 hrs by modified standard CSLI M27-A2 method
# Candida tropicalis [26] = assay: Fungicidal activity against Candida tropicalis 156 after 48 hrs by modified standard CSLI M27-A2 method; format: functional; conditions: Candida tropicalis, 156, 48 h
# Pichia kudriavzevii [27] = assay: Antifungal activity against Candida krusei E28 after 24 hrs by modified standard CSLI M27-A2 method; format: functional; conditions: E28, 24 h
# Candida tropicalis [28] = assay: microbe, parasite or virus in culture; format: functional; conditions: Candida tropicalis, 156, 48 h
# Description: Antifungal activity against Candida tropicalis 156 after 48 hrs by modified standard CSLI M27-A2 method
# [29] = Retention time of the compound by gradient elution based HPLC method; format: physicochemical
# Staphylococcus aureus [30] = assay: microbe, parasite or virus in culture; format: functional; conditions: H 5996/08, 48 h
# Description: Antibacterial activity against Staphylococcus aureus H 5996/08 after 48 hrs by microdilution broth method
# Nakaseomyces glabratus [31] = assay: Fungicidal activity against Candida glabrata 20/I after 48 hrs by modified standard CSLI M27-A2 method; format: functional
# [32] = tested on: Staphylococcus epidermidis; assay: microbe, parasite or virus in culture; format: functional; conditions: H 6966/08, 48 h
# Description: Antibacterial activity against Staphylococcus epidermidis H 6966/08 after 48 hrs by microdilution broth method
# Lichtheimia corymbifera [33] = assay: Fungicidal activity against Absidia corymbifera 272 after 48 hrs by modified standard CSLI M27-A2 method; format: functional; conditions: Lichtheimia corymbifera, 272, 48 h
# Trichosporon asahii [34] = assay: microbe, parasite or virus in culture; format: functional; conditions: Trichosporon asahii, 1188, 48 h
# Description: Antifungal activity against Trichosporon asahii 1188 after 48 hrs by modified standard CSLI M27-A2 method
# Trichosporon asahii [35] = assay: Fungicidal activity against Trichosporon asahii 1188 after 48 hrs by modified standard CSLI M27-A2 method; format: functional; conditions: Trichosporon asahii, 1188, 48 h
# [36] = Cytotoxicity against CHOK1 cells after 24 hrs by MTT assay; format: ADME, cell-based; conditions: Cricetulus griseus, CHO-K1, 24 h
# Staphylococcus aureus [37] = assay: Bactericidal activity against Staphylococcus aureus CCM 4516/08 after 48 hrs by microdilution broth method; format: functional; conditions: CCM 4516/08, 48 h, read-out: MBC>99.9
# [38] = tested on: Trichophyton mentagrophytes; assay: microbe, parasite or virus in culture; format: functional; conditions: Trichophyton mentagrophytes, 445, 72 h
# Description: Antifungal activity against Trichophyton mentagrophytes 445 after 72 hrs by modified standard CSLI M27-A2 method
# Enterococcus sp. [39] = assay: microbe, parasite or virus in culture; format: functional; conditions: J 14365/08, 24 h
# Description: Antibacterial activity against Enterococcus sp. J 14365/08 after 24 hrs by microdilution broth method
# Escherichia coli [40] = assay: microbe, parasite or virus in culture; format: functional; conditions: CCM 4517, 48 h
# Description: Antibacterial activity against Escherichia coli CCM 4517 after 48 hrs by microdilution broth method
# Enterococcus sp. [41] = assay: Bactericidal activity against Enterococcus sp. J 14365/08 after 48 hrs by microdilution broth method; format: functional; conditions: J 14365/08, 48 h, read-out: MBC>99.9
# Candida tropicalis [42] = assay: microbe, parasite or virus in culture; format: functional; conditions: Candida tropicalis, 156, 24 h
# Description: Antifungal activity against Candida tropicalis 156 after 24 hrs by modified standard CSLI M27-A2 method
# Nakaseomyces glabratus [43] = assay: Antifungal activity against Candida glabrata 20/I after 48 hrs by modified standard CSLI M27-A2 method; format: functional
# [44] = Retention time of the compound by isocratic elution based HPLC method; format: physicochemical
# Klebsiella pneumoniae [45] = assay: microbe, parasite or virus in culture; format: functional; conditions: J 14368/08, 48 h
# Description: Antibacterial activity against Klebsiella pneumoniae J 14368/08 after 48 hrs by microdilution broth method
# Pseudomonas aeruginosa [46] = assay: microbe, parasite or virus in culture; format: functional; conditions: CCM 1961, 72 h
# Description: Antibacterial activity against Pseudomonas aeruginosa CCM 1961 after 72 hrs by microdilution broth method
# Candida albicans [47] = assay: microbe, parasite or virus in culture; format: functional; conditions: ATCC 44859, 24 h
# Description: Antifungal activity against Candida albicans ATCC 44859 after 24 hrs by modified standard CSLI M27-A2 method
# Escherichia coli [48] = assay: microbe, parasite or virus in culture; format: functional; conditions: CCM 4517, 24 h
# Description: Antibacterial activity against Escherichia coli CCM 4517 after 24 hrs by microdilution broth method
# Staphylococcus aureus [49] = assay: microbe, parasite or virus in culture; format: functional; conditions: CCM 4516/08, 24 h
# Description: Antibacterial activity against Staphylococcus aureus CCM 4516/08 after 24 hrs by microdilution broth method
# Staphylococcus aureus [50] = assay: microbe, parasite or virus in culture; format: functional; conditions: H 5996/08, 24 h
# Description: Antibacterial activity against Staphylococcus aureus H 5996/08 after 24 hrs by microdilution broth method
# Klebsiella pneumoniae [51] = assay: microbe, parasite or virus in culture; format: functional; conditions: D 11750/08, 24 h
# Description: Antibacterial activity against Klebsiella pneumoniae D 11750/08 after 24 hrs by microdilution broth method
smiles,measurement,setting,value
CCCCCCCCCCCC[n+]1cccc2cc(O)ccc21.[Br-],MBC,Klebsiella pneumoniae [1],3.91 µM
same,MIC,Lichtheimia corymbifera [2],3.91 µM
same,MFC,Aspergillus fumigatus [3],7.81 µM
same,MBC,Escherichia coli [4],1.95 µM
same,MIC,Candida albicans [5],1.95 µM
same,MIC95,Klebsiella pneumoniae [6],1.95 µM
same,MIC,Trichosporon asahii [7],0.98 µM
same,MBC,Pseudomonas aeruginosa [8],7.81 µM
same,MIC,Pichia kudriavzevii [9],0.98 µM
same,MIC,[10],0.98 µM
same,MBC,Staphylococcus aureus [11],7.81 µM
same,MIC,Aspergillus fumigatus [12],1.95 µM
same,MBC,[13],0.49 µM
same,MFC,Candida albicans [14],1.95 µM
same,MIC95,[15],0.49 µM
same,MIC95,Staphylococcus aureus [16],1.95 µM
same,MIC95,Enterococcus sp. [17],1.95 µM
same,MIC,Nakaseomyces glabratus [18],0.98 µM
same,MBC,Klebsiella pneumoniae [19],1.95 µM
same,MIC,Aspergillus fumigatus [20],7.81 µM
same,MIC95,Pseudomonas aeruginosa [21],7.81 µM
same,MFC,[22],0.98 µM
same,MFC,Pichia kudriavzevii [23],1.95 µM
same,MIC95,Klebsiella pneumoniae [24],3.91 µM
same,MIC,Lichtheimia corymbifera [25],15.6 µM
same,MFC,Candida tropicalis [26],1.95 µM
same,MIC,Pichia kudriavzevii [27],0.98 µM
same,MIC,Candida tropicalis [28],0.98 µM
same,Retention_time,[29],9.34 min
same,MIC95,Staphylococcus aureus [30],1.95 µM
same,MFC,Nakaseomyces glabratus [31],1.95 µM
same,MIC95,[32],0.49 µM
same,MFC,Lichtheimia corymbifera [33],15.6 µM
same,MIC,Trichosporon asahii [34],1.95 µM
same,MFC,Trichosporon asahii [35],1.95 µM
same,IC50,[36],50 µM
same,MBC,Staphylococcus aureus [37],7.81 µM
same,MIC,[38],0.49 µM
same,MIC95,Enterococcus sp. [39],0.98 µM
same,MIC95,Escherichia coli [40],1.95 µM
same,MBC,Enterococcus sp. [41],1.95 µM
same,MIC,Candida tropicalis [42],0.98 µM
same,MIC,Nakaseomyces glabratus [43],1.95 µM
same,Retention_time,[44],0.95 min
same,MIC95,Klebsiella pneumoniae [45],3.91 µM
same,MIC95,Pseudomonas aeruginosa [46],7.81 µM
same,MIC,Candida albicans [47],0.98 µM
same,MIC95,Escherichia coli [48],1.95 µM
same,MIC95,Staphylococcus aureus [49],0.49 µM
same,MIC95,Staphylococcus aureus [50],0.49 µM
same,MIC95,Klebsiella pneumoniae [51],1.95 µM
CCCCCCCCCCCCCCCC[n+]1cccc2cc(O)ccc21.[Br-],MBC,Klebsiella pneumoniae [1],> 500 µM
same,MIC,Lichtheimia corymbifera [2],7.81 µM
same,MFC,Aspergillus fumigatus [3],250 µM
same,MBC,Escherichia coli [4],500 µM
same,MIC,Candida albicans [5],7.81 µM
same,MIC95,Klebsiella pneumoniae [6],> 500 µM
same,MIC,Trichosporon asahii [7],7.81 µM
same,MBC,Pseudomonas aeruginosa [8],> 500 µM
same,MIC,Pichia kudriavzevii [9],3.91 µM
same,MIC,[10],3.91 µM
same,MBC,Staphylococcus aureus [11],3.91 µM
same,MIC,Aspergillus fumigatus [12],15.6 µM
same,MBC,[13],3.91 µM
same,MFC,Candida albicans [14],62.5 µM
same,MIC95,[15],0.49 µM
same,MIC95,Staphylococcus aureus [16],0.98 µM
same,MIC95,Enterococcus sp. [17],3.91 µM
same,MIC,Nakaseomyces glabratus [18],3.91 µM
same,MBC,Klebsiella pneumoniae [19],> 500 µM
same,MIC,Aspergillus fumigatus [20],15.6 µM
same,MIC95,Pseudomonas aeruginosa [21],> 500 µM
same,MFC,[22],3.91 µM
same,MFC,Pichia kudriavzevii [23],125 µM
same,MIC95,Klebsiella pneumoniae [24],> 500 µM
same,MIC,Lichtheimia corymbifera [25],7.81 µM
same,MFC,Candida tropicalis [26],62.5 µM
same,MIC,Pichia kudriavzevii [27],3.91 µM
same,MIC,Candida tropicalis [28],7.81 µM
same,Retention_time,[29],10.77 min
same,MIC95,Staphylococcus aureus [30],3.91 µM
same,MFC,Nakaseomyces glabratus [31],125 µM
same,MIC95,[32],0.49 µM
same,MFC,Lichtheimia corymbifera [33],500 µM
same,MIC,Trichosporon asahii [34],7.81 µM
same,MFC,Trichosporon asahii [35],62.5 µM
same,IC50,[36],20 µM
same,MBC,Staphylococcus aureus [37],7.81 µM
same,MIC,[38],3.91 µM
same,MIC95,Enterococcus sp. [39],3.91 µM
same,MIC95,Escherichia coli [40],500 µM
same,MBC,Enterococcus sp. [41],7.81 µM
same,MIC,Candida tropicalis [42],7.81 µM
same,MIC,Nakaseomyces glabratus [43],3.91 µM
same,Retention_time,[44],3.3 min
same,MIC95,Klebsiella pneumoniae [45],> 500 µM
same,MIC95,Pseudomonas aeruginosa [46],> 500 µM
same,MIC,Candida albicans [47],7.81 µM
same,MIC95,Escherichia coli [48],500 µM
same,MIC95,Staphylococcus aureus [49],0.98 µM
same,MIC95,Staphylococcus aureus [50],3.91 µM
same,MIC95,Klebsiella pneumoniae [51],> 500 µM
